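Grown in 96-well plates, cells were treated for 48 hours with each compound at five concentrations. Insufficient inhibition: endpoint recorded as highest concentration tested. The concentration for 50% growth inhibition is given as GI50.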 Calls of active or inactive are those of the source. Cut-off read from the data, not from the text of the source: active = GI50 up to about 1.1 µM and inactive = higher.
Key:
Test in all cases: DTP human tumour cell line panel, 48 h
OVCAR-3 = test system: OVCAR-3
CCRF-CEM = test system: CCRF-CEM
UACC-257 = test system: UACC-257
HCC 2998 = test system: HCC 2998
RPMI-8226 = test system: RPMI-8226
HT-29 = test system: HT-29
NCI-H522 = test system: NCI-H522
SF-539 = test system: SF-539
Malme-3M = test system: Malme-3M
A549 = test system: A549
MDA-MB-435 = test system: MDA-MB-435
NCI-H460 = test system: NCI-H460
T47D = test system: T47D
SNB-19 = test system: SNB-19
SNB-75 = test system: SNB-75
EKVX = test system: EKVX
NCI-H23 = test system: NCI-H23
HOP-62 = test system: HOP-62
HCT-15 = test system: HCT-15
SN12C = test system: SN12C

Structure (SMILES) | GI50 (OVCAR-3) | GI50 (CCRF-CEM) | GI50 (UACC-257) | GI50 (HCC 2998) | GI50 (RPMI-8226) | GI50 (HT-29) | GI50 (NCI-H522) | GI50 (SF-539) | GI50 (Malme-3M) | GI50 (A549) | GI50 (MDA-MB-435) | GI50 (NCI-H460) | GI50 (T47D) | GI50 (SNB-19) | GI50 (SNB-75) | GI50 (EKVX) | GI50 (NCI-H23) | GI50 (HOP-62) | GI50 (HCT-15) [µM] | GI50 (SN12C)
OCCN(C1=NCCN1)/[N+](=C/c1ccccc1O)[CH-]c1ccccc1O | > 100 µM (inactive) | > 100 µM (inactive) | > 100 µM (inactive) | > 100 µM (inactive) | > 100 µM (inactive) | > 100 µM (inactive) | > 100 µM (inactive) | > 100 µM (inactive) | > 100 µM (inactive) | > 100 µM (inactive) | > 100 µM (inactive) | > 100 µM (inactive) | > 100 µM (inactive) | > 100 µM (inactive) | > 100 µM (inactive) | > 100 µM (inactive) | > 100 µM (inactive) | > 100 µM (inactive) | 51.5 | > 100 µM (inactive)
CCOC(=O)c1ccc(NC(=O)Oc2ccc3c(C)cc(=O)oc3c2)cc1 | 32.7 µM (inactive) | 22.6 µM (inactive) | 43.2 µM (inactive) | 23.7 µM (inactive) | 30.3 µM (inactive) | 32.7 µM (inactive) | 18.7 µM (inactive) | > 100 µM (inactive) | 42.6 µM (inactive) | 43.7 µM (inactive) | 35.6 µM (inactive) | 29.6 µM (inactive) | 22.2 µM (inactive) | 29.7 µM (inactive) | 32 µM (inactive) | 42.9 µM (inactive) | 32.4 µM (inactive) | 31.6 µM (inactive) | 33.7 | 33.1 µM (inactive)
OC1c2ccccc2[C@@H]2[C@H]1[C@@H](c1ccccc1)C1(Cc3ccccc3C1O)[C@H]2c1ccccc1 (stereo not given in full) | 2.36 µM (inactive) | 3.13 µM (inactive) | 3.93 µM (inactive) | 1.91 µM (inactive) | 2.84 µM (inactive) | 2.29 µM (inactive) | 3.03 µM (inactive) | 13.4 µM (inactive) | 5.53 µM (inactive) | 3.86 µM (inactive) | 2.82 µM (inactive) | 3.13 µM (inactive) | 6.71 µM (inactive) | 13.6 µM (inactive) | 7.73 µM (inactive) | 6.35 µM (inactive) | 6.4 µM (inactive) | 10.7 µM (inactive) | 4.07 | 1.77 µM (inactive)
O=NN(CCCl)C(=O)NC1CCCCC1 [LOMUSTINE] | 66.2 µM (inactive) | 13 µM (inactive) | 54.2 µM (inactive) | 56 µM (inactive) | 16.9 µM (inactive) | 53.8 µM (inactive) | 24.4 µM (inactive) | 24 µM (inactive) | 57.8 µM (inactive) | 51.6 µM (inactive) | 3.36 µM (inactive) | 36.1 µM (inactive) | 31.6 µM (inactive) | 52.5 µM (inactive) | 37.2 µM (inactive) | 72.8 µM (inactive) | 68.5 µM (inactive) | 61.7 µM (inactive) | 29.9 | 46.6 µM (inactive)
